In patent US20230265151A1, “GIP/GLP1 CO-AGONIST COMPOUNDS” (priority 2020, published 2023):
Read-outs that look alike come from different tables or passages of the source. *1 amine or outer side, *2 acyl side, *3 side chain or, on linkers, in order; H or OH if unused. Where a SMILES comes first, the peptide text is derived from it. Side-chain parts run from the residue outwards. [ ]: non-standard residue; d: D form. The star is where a group is joined. αMePhe(2-F) = C[C@](N)(Cc1ccccc1F)C(=O)O; γGlu = O=C(O)[C@H](CCC(=O)[*:2])N[*:1]; αMeY = C[C@](N)(Cc1ccc(O)cc1)C(=O)O; 4Pal = N[C@@H](Cc1ccncc1)C(=O)O; αMeL = CC(C)C[C@](C)(N)C(=O)O; Lauroyl = CCCCCCCCCCCC(=O)*; Orn = NCCC[C@H](N)C(=O)O; AEEA = NCCOCCOCC(=O)O; Aib = CC(C)(N)C(=O)O

Legend:
Type in all cases: cell-based
[1] = target: T1, hGIPR (Homo sapiens, UniProt P48546); experiment: Functional cAMP formation (HTRF) in HEK-293 clonal cells expressing hGIPR, 0.1% bovine casein, without or with 1.0% human serum albumin; conditions: for Emax: percent of maximal response to GIP(1-42)NH2; for EC50: geometric mean
T1 construct: expressed in transfected cells
T1 sequence (P48546 22-466): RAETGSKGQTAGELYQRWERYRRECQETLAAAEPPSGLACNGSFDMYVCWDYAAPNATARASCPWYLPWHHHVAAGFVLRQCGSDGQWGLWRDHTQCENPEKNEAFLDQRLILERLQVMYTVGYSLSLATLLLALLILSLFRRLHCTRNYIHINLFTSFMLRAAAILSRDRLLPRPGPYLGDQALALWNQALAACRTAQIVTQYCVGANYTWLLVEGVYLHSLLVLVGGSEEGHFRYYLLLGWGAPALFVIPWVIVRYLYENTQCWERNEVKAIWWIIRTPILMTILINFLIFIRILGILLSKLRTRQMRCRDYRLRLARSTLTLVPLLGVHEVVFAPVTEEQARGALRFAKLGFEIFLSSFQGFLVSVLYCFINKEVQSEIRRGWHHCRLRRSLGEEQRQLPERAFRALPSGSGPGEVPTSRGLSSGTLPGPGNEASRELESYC
In short: (§1)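 Readings of the HTRF 665/620 nm ratio, which falls as cAMP rises, were converted to nM cAMP using a standard curve after 30 min peptide exposure at 37° C.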

[2] = target: T2, hGCGR (Homo sapiens, UniProt P47871); experiment: Functional cAMP formation (HTRF) in HEK-293 clonal cells expressing hGCGR, 0.1% bovine casein, without or with 1.0% human serum albumin; conditions: geometric mean
T2 construct: expressed in transfected cells
In short: as §1

[3] = target: hGLP-1R (Homo sapiens, UniProt P43220); experiment: Functional cAMP formation (HTRF) in HEK-293 clonal cells expressing hGLP-1R, 0.1% bovine casein, without or with 1.0% human serum albumin; set-up: expressed in transfected cells; conditions: for Emax: percent of maximal response to GLP-1(7-36)NH2; for EC50: geometric mean
In short: as §1

[4] = HEK293, 0.1% bovine casein and 1.0% human serum albumin, 37° C., read-out: hGIPR Emax, % ± SEM
[5] = 0.1% bovine casein and 1.0% human serum albumin, 37° C., read-out: hGCGR EC50, nM (SEM, n)
[6] = cAMP, 37° C., 0.1% bovine casein (no human serum albumin), read-out: hGCGR EC50, nM (SEM, n)
[7] = HEK293, 0.1% bovine casein and 1.0% human serum albumin, 37° C., read-out: hGLP-1R Emax, % ± SEM
[8] = HEK293, cAMP, 37° C., 0.1% bovine casein, arithmetic mean, read-out: hGLP-1R Emax, % ± SEM
[9] = 0.1% bovine casein and 1.0% human serum albumin, 37° C., read-out: hGIPR EC50, nM (SEM, n)
[10] = HEK293, cAMP, 37° C., 0.1% bovine casein, arithmetic mean, read-out: hGIPR Emax, % ± SEM
[11] = cAMP, 37° C., 0.1% bovine casein (no human serum albumin), read-out: hGIPR EC50, nM (SEM, n)
[12] = cAMP, 37° C., 0.1% bovine casein (no human serum albumin), read-out: hGLP-1R EC50, nM (SEM, n)

T2 sequence (P47871 26-477): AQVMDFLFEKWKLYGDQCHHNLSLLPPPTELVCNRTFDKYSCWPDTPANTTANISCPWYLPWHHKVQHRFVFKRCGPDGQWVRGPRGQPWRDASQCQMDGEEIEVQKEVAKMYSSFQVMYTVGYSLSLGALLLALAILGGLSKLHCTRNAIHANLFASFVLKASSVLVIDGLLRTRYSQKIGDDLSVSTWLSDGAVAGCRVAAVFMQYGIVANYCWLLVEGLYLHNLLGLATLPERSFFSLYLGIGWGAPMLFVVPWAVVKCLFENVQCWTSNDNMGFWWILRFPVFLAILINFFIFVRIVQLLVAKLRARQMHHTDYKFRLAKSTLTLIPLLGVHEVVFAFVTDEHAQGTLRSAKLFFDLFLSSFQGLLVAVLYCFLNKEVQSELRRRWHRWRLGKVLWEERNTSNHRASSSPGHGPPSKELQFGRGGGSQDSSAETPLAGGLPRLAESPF
Sequence of hGLP-1R (P43220 24-463): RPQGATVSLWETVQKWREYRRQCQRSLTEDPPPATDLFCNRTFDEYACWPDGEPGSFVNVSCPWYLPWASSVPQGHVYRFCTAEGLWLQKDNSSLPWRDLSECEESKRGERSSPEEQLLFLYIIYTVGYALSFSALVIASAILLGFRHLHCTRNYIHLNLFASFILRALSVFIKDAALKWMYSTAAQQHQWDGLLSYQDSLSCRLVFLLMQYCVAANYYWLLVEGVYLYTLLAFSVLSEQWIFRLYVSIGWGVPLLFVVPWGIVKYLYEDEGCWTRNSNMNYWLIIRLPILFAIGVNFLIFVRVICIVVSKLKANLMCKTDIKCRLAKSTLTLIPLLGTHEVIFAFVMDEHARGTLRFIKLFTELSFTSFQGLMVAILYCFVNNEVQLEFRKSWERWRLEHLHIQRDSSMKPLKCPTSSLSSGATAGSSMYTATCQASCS

CC[C@H](C)[C@H](NC(=O)[C@H](CCCN)NC(=O)[C@H](CC(=O)O)NC(=O)[C@H](CC(C)C)NC(=O)[C@](C)(CC(C)C)NC(=O)[C@@H](NC(=O)[C@H](CO)NC(=O)[C@H](Cc1ccc2ccccc2c1)NC(=O)[C@H](CC(=O)O)NC(=O)[C@H](CO)NC(=O)[C@@H](NC(=O)[C@](C)(Cc1ccccc1F)NC(=O)[C@@H](NC(=O)CNC(=O)[C@H](CCC(=O)O)NC(=O)C(C)(C)NC(=O)[C@@H](N)Cc1ccc(O)cc1)[C@@H](C)O)[C@@H](C)O)[C@@H](C)CC)C(=O)N[C@@H](C)C(=O)N[C@@H](CCC(N)=O)C(=O)NC(C)(C)C(=O)N[C@@H](CCCCNC(=O)COCCOCCNC(=O)COCCOCCNC(=O)CC[C@H](NC(=O)CCCCCCCCCCCCC(=O)O)C(=O)O)C(=O)N[C@@H](Cc1ccccc1)C(=O)N[C@H](C(=O)N[C@H](CCC(=O)O)C(=O)N[C@@](C)(Cc1ccc(O)cc1)C(=O)N[C@@H](CC(C)C)C(=O)N[C@H](C(=O)N[C@@H](CCCCNC(=O)COCCOCCNC(=O)COCCOCCNC(=O)CC[C@H](NC(=O)CCCCCCCCCCCCC(=O)O)C(=O)O)C(=O)NCC(=O)NCC(=O)N1CCC[C@H]1C(=O)N[C@@H](CO)C(=O)N[C@@H](CO)C(=O)NCC(=O)N[C@@H](C)C(=O)N1CCC[C@H]1C(=O)N1CCC[C@H]1C(=O)N1CCC[C@H]1C(=O)N[C@@H](CO)C(N)=O)[C@@H](C)CC)[C@@H](C)CC [Example 253]
Emax [1, 4]: 78.9%
EC50 [2, 5]: > 9950 nM
EC50 [2, 6]: > 9950 nM
Emax [3, 7]: 114%
Emax [3, 8]: 113%

CC[C@H](C)[C@H](NC(=O)[C@H](CC(C)C)NC(=O)[C@](C)(Cc1ccc(O)cc1)NC(=O)[C@H](CCCCNC(=O)COCCOCCNC(=O)COCCOCCNC(=O)CC[C@H](NC(=O)CCCCCCCCCCCCC(=O)O)C(=O)O)NC(=O)[C@@H](NC(=O)[C@H](Cc1ccccc1)NC(=O)[C@H](CCC(=O)O)NC(=O)C(C)(C)NC(=O)[C@H](CCC(N)=O)NC(=O)[C@H](C)NC(=O)[C@H](CCCCNC(=O)COCCOCCNC(=O)COCCOCCNC(=O)CC[C@H](NC(=O)CCCCCCCCCCCCC(=O)O)C(=O)O)NC(=O)[C@H](CCCN)NC(=O)[C@H](CC(=O)O)NC(=O)[C@H](CC(C)C)NC(=O)[C@](C)(CC(C)C)NC(=O)[C@@H](NC(=O)[C@H](CO)NC(=O)[C@H](Cc1ccncc1)NC(=O)[C@H](CC(=O)O)NC(=O)[C@H](CO)NC(=O)[C@@H](NC(=O)[C@](C)(Cc1ccccc1F)NC(=O)[C@@H](NC(=O)CNC(=O)[C@H](CCC(=O)O)NC(=O)C(C)(C)NC(=O)[C@@H](N)Cc1ccc(O)cc1)[C@@H](C)O)[C@@H](C)O)[C@@H](C)CC)[C@@H](C)CC)C(=O)N[C@@H](CCC(=O)O)C(=O)NCC(=O)NCC(=O)N1CCC[C@H]1C(=O)N[C@@H](CO)C(=O)N[C@@H](CO)C(=O)NCC(=O)N[C@@H](C)C(=O)N1CCC[C@H]1C(=O)N1CCC[C@H]1C(=O)N1CCC[C@H]1C(=O)N[C@@H](CO)C(N)=O [Example 16]
Emax ([1]; HEK293, read-out: hGIPR Emax, % ± SEM, 0.1% bovine casein and 1.0% human serum albumin, 37° C.): 91.5 ± 1.01%
EC50 ([1]; hGIPR EC50, nM (SEM, n), 0.1% bovine casein and 1.0% human serum albumin, 37° C.): 0.625 nM
EC50 ([1]; hGIPR EC50, nM (SEM, n), cAMP, incubated at 37° C., 0.1% bovine casein (no human serum albumin)): 0.0113 nM
EC50 ([2]; hGCGR EC50, nM (SEM, n), 0.1% bovine casein and 1.0% human serum albumin, 37° C.): > 9950 nM
EC50 ([2]; hGCGR EC50, nM (SEM, n), cAMP, incubated at 37° C., 0.1% bovine casein (no human serum albumin)): > 9950 nM
Emax ([3]; HEK293, read-out: hGLP-1R Emax, % ± SEM, 0.1% bovine casein and 1.0% human serum albumin, 37° C.): 98.3 ± 0.735%
EC50 ([3]; hGLP-1R EC50, nM (SEM, n), 0.1% bovine casein and 1.0% human serum albumin, 37° C.): 9.06 nM
EC50 ([3]; hGLP-1R EC50, nM (SEM, n), cAMP, incubated at 37° C., 0.1% bovine casein (no human serum albumin)): 0.245 nM

CCCCCCCCCCCC(=O)N[C@@H](CCC(=O)NCCOCCOCC(=O)NCCOCCOCC(=O)NCCCC[C@H](NC(=O)[C@H](CCCN)NC(=O)[C@H](CC(=O)O)NC(=O)[C@H](CC(C)C)NC(=O)[C@](C)(CC(C)C)NC(=O)[C@@H](NC(=O)[C@H](CO)NC(=O)[C@H](Cc1ccncc1)NC(=O)[C@H](CC(=O)O)NC(=O)[C@H](CO)NC(=O)[C@@H](NC(=O)[C@](C)(Cc1ccccc1F)NC(=O)[C@@H](NC(=O)CNC(=O)[C@H](CCC(=O)O)NC(=O)C(C)(C)NC(=O)[C@@H](N)Cc1ccc(O)cc1)[C@@H](C)O)[C@@H](C)O)[C@@H](C)CC)C(=O)N[C@@H](C)C(=O)N[C@@H](CCC(N)=O)C(=O)NC(C)(C)C(=O)N[C@@H](CCC(=O)O)C(=O)N[C@@H](Cc1ccccc1)C(=O)N[C@H](C(=O)N[C@H](CCC(=O)O)C(=O)N[C@@](C)(Cc1ccc(O)cc1)C(=O)N[C@@H](CC(C)C)C(=O)N[C@H](C(=O)N[C@@H](CCCCNC(=O)COCCOCCNC(=O)COCCOCCNC(=O)CC[C@H](NC(=O)CCCCCCCCCCC)C(=O)O)C(=O)NCC(=O)NCC(N)=O)[C@@H](C)CC)[C@@H](C)CC)C(=O)O [Example 296] (H-Y[Aib]EGT[αMePhe(2-F)]TSD[4Pal]SI[αMeL]LD[Orn]K([AEEA-AEEA-γGlu-Lauroyl])AQ[Aib]EFI[dE][αMeY]LIK([AEEA-AEEA-γGlu-Lauroyl])GG-NH2; N-terminus assumed)
EC50 [1, 9]: 0.823 nM
Emax [1, 4]: 91.9%
Emax [1, 10]: 100%
EC50 [1, 11]: 0.0121 nM
EC50 [2, 5]: > 9950 nM
EC50 [2, 6]: > 9950 nM
EC50 ([3]; 0.1% bovine casein and 1.0% human serum albumin, 37° C., read-out: hGLP-1R EC50, nM (SEM, n)): 13 nM
Emax [3, 7]: 109%
Emax [3, 8]: 109%
EC50 [3, 12]: 0.108 nM

CC[C@H](C)[C@H](NC(=O)[C@H](CCCN)NC(=O)[C@H](CC(=O)O)NC(=O)[C@H](CC(C)C)NC(=O)[C@](C)(CC(C)C)NC(=O)[C@@H](NC(=O)C(C)(C)NC(=O)[C@@H](NC(=O)[C@H](CC(=O)O)NC(=O)[C@H](CO)NC(=O)[C@@H](NC(=O)[C@](C)(Cc1ccccc1F)NC(=O)[C@@H](NC(=O)CNC(=O)[C@H](CCC(=O)O)NC(=O)C(C)(C)NC(=O)[C@@H](N)Cc1ccc(O)cc1)[C@@H](C)O)[C@@H](C)O)C(C)C)[C@@H](C)CC)C(=O)N[C@@H](C)C(=O)N[C@@H](CCC(N)=O)C(=O)NC(C)(C)C(=O)N[C@@H](CCCN)C(=O)N[C@@H](Cc1ccccc1)C(=O)N[C@H](C(=O)N[C@@H](CCCCNC(=O)COCCOCCNC(=O)COCCOCCNC(=O)CC[C@H](NC(=O)CCCCCCCCCCCCC(=O)O)C(=O)O)C(=O)N[C@@](C)(Cc1ccc(O)cc1)C(=O)N[C@@H](CC(C)C)C(=O)N[C@H](C(=O)N[C@@H](CCCCNC(=O)COCCOCCNC(=O)COCCOCCNC(=O)CC[C@H](NC(=O)CCCCCCCCCCCCC(=O)O)C(=O)O)C(=O)NCC(=O)NCC(=O)N1CCC[C@H]1C(=O)N[C@@H](CO)C(=O)N[C@@H](CO)C(=O)NCC(=O)N[C@@H](C)C(=O)N1CCC[C@H]1C(=O)N1CCC[C@H]1C(=O)N1CCC[C@H]1C(=O)N[C@@H](CO)C(N)=O)[C@@H](C)CC)[C@@H](C)CC [Example 317]
EC50 [1, 9]: 2.03 nM
Emax [1, 4]: 84.4%
Emax [1, 10]: 112%
EC50 [1, 11]: 0.0587 nM
EC50 [2, 5]: > 9950 nM
EC50 [2, 6]: > 9950 nM
Emax [3, 7]: 98.1%
EC50 [3, 12]: 1.34 nM
